Patent US5925667A, “Pyrrolidine derivative, anti-ulcer drug, and antibacterial drug” (Shiseido Co., Ltd., priority 1997, dated 1999)

Test system: Slc:ICR mice
Assay: not given
Set-up: species or system male Slc:ICR mice
Details: mouse, in vivo
Protocol: AT: Single Dose Toxicity Pretest
Male Slc:ICR mice (5-week-old) were used. Each group has 3 to 5 mice and each mouse was fasted, but allowed free access to water, for 4 to 5 hours from 9 a.m. in the test day. Then, 2,000 mg/10 ml/kg of the sample compound dissolved or suspended in an aqueous solution of 0.5% sodium carboxymethyl cellulose was orally administered thereto. To a control, only the vehicle was administered. […] The body weight was measured before and after the fasting as well as at the same time everyday. The dead animals were immediately subjected to autopsy and their organs were observed by naked eyes. Also, the living animals were sacrificed with ether or carbon dioxide one week after the administration and then their organs were observed by naked eyes.
The toxicity at the single dose of 2,000 mg/kg of the sample compound was expressed as being classified into 5 levels.
5: Mortality rate is 0%; no toxicity is found at all both in behavior and organs.
4: Mortality rate is 0%; while no toxicity is found in organs, slight toxicity is observed in behavior or body weight increase.
3: While there is a dead animal (though not all the animals are dead), no toxicity is found in organs.
2: Regardless of whether there is a dead animal or not, toxicity is found in organs.
1: All the animals are dead.

Row | SMILES | toxicity at single dose (AT), 5 levels
1 | CCN1CCCC1CNC(=O)c1cc(OCC=C(C)C)ccc1OCC=C(C)C (stereo not drawn) [Example 6, 1-ethyl-2-(2,5-diprenyloxybenzoylaminomethyl)pyrrolidine] | 3
2 | CCN1CCCC1CNC(=O)c1ccc(OCC=C(C)C)c(OCC=C(C)C)c1 (stereo not drawn) [Example 7, 1-ethyl-2-(3,4-diprenyloxybenzoylaminomethyl)pyrrolidine] | 3
3 | CCN1CCCC1CNC(=O)c1cc(OC/C=C(\C)CCC=C(C)C)ccc1OC/C=C(\C)CCC=C(C)C (stereo not drawn) [Example 10, 1-ethyl-2-(2,5-digeranyloxybenzoylaminomethyl)pyrrolidine] | 3

Test system: isolated gastric fundic gland
Assay: CAP: Acid Secretion Inhibition Test In Vitro ([14C]-aminopyrine uptake test)
Assay type: cell-based, male Japanese White rabbit
Details: Oryctolagus cuniculus; final concentration 10^-5 M, histamine 10^-5 M; read-out: acid secretion inhibitory rate (CAP)
Protocol: CAP: Acid Secretion Inhibition Test In Vitro
The acid secretion inhibitory activity in a cell level is studied. It can also be used for studying the mechanism of the effect.
ii-a) Preparation of isolated gastric fundus gland suspension
First, an isolated gastric fundic gland sample was prepared. Namely, a male Japanese White rabbit (2.5 to 3 kg) was anesthetized to death with Nembutal™ and then the abdomen was incised. Immediately thereafter, the stomach was removed and, after its pyloric and cardiac antrum were severed, incised along its greater curvature into two sheets. The gastric contents adhering to the mucosal surface was washed out with ice-cooled PBS (-) and then carefully washed therein. The gastric wall was spread on a cork board with its mucosal surface facing up and the feed and mucus thereon were completely removed with sterile gauze. The mucosa was separated therefrom by a spatula and then collected in ice-cooled PBS (-). After being washed twice with PBS (-), the mucosa was minced into 2-3 mm^3 pieces by scissors. These pieces were further washed twice with a nutrient solution. The nutrient solution comprises 132.4 mM of NaCl, 5.4 mM of KCl, 5 mM of Na2 HPO4.12H2 O, 1 mM of NaH2 PO4.2H2,
1.2 mM of MgSO4, 1 mM of CaCl2, 25 mM of HEPES, 2 mg/ml of glucose, and 1 mg/ml of BSA.
Into 70 ml of the nutrient solution containing 1 mg/ml of collagenase, minced mucosal pieces were dispersed and intensely stirred in a conical flask with a stirrer at 37° C. for 40 to 60 minutes. During this period, 100% O2 was sprayed on the nutrient solution surface and the pH was appropriately measured such that it was immediately adjusted to pH 7.4, when the value was therebelow, with a base. The nutrient solution was added to the reaction solution so as to attain the total amount of about 200 ml. After being filtered through a mesh, the suspension was divisionally introduced into 50 ml centrifuge tubes and left for 15 minutes such that gastric fundic gland was deposited. The supernatant was repeatedly removed by an aspirator, dispersed in the nutrient solution, and then left such that the gastric fundic gland was washed three times. At this time, without using a pipette, the suspension was alternately introduced into two centrifuge tubes so as to effect dispersion. The number of cells was counted under microscope and adjusted to 1.6×10^6 cells/ml.
ii-b) [^14 C]-aminopyrine uptake test.
Then, [^14 C]-aminopyrine uptake test was performed. After an Eppendorf tube was weighed, 10 μl (final concentration: 10^-5 M) of histamine dissolved in the above-mentioned nutrient solution, 10 μl (final concentration: 10^-5 M) of the test compound dissolved in DMSO, and 10 μl (final concentration: 0.05 μCi/ml) of [^14 C]-aminopyrine diluted with the nutrient solution were introduced therein and then 970 μl of the isolated gastric fundic gland suspension prepared above was added thereto. Subsequently, this mixture was shaken at 37° C. for 40 minutes at 125 cycles/minute. After being centrifuged for 30 seconds, 200 μl of its supernatant was collected into a mini-vial, while the rest was removed by an aspirator. The gland pellet was completely dried as the tube with its lid being opened was kept for one night in a drying oven at 80° C. and then the lid was closed and the weight was determined at room temperature. Then 100 μl of 1N KOH was added thereto and the tube with its lid being closed was treated at 60° C. for 1 to 2 hours so as to dissolve the pellet. Then, the contents thereof were transferred to a mini-vial. Into the mini-vial containing the supernatant or gland pellet, 4 ml of Atomlite™ was added and then the radioactivity was measured by a liquid scintillation counter. Here, after the radioactivity of the gland pellet was corrected by using a sample in which 20 mM of NaSCN was added so as to cancel the hydrogen ion concentration gradient, the integration ratio of aminopyrine specifically trapped by the gland pellet was calculated. […]

Row | SMILES | inhibition at 10 µM [%]
4 | CCN1CCCC1CNC(=O)c1cc(OCC=C(C)C)ccc1OCC=C(C)C (stereo not drawn) [Example 6, 1-ethyl-2-(2,5-diprenyloxybenzoylaminomethyl)pyrrolidine] | 100
5 | CCN1CCCC1CNC(=O)c1ccc(OCC=C(C)C)c(OCC=C(C)C)c1 (stereo not drawn) [Example 7, 1-ethyl-2-(3,4-diprenyloxybenzoylaminomethyl)pyrrolidine] | 99.7
6 | CCN1CCCC1CNC(=O)c1cc(OC/C=C(\C)CCC=C(C)C)ccc1OC/C=C(\C)CCC=C(C)C (stereo not drawn) [Example 10, 1-ethyl-2-(2,5-digeranyloxybenzoylaminomethyl)pyrrolidine] | 100
